Results on 88 molecules are retold here after a melting point compilation (Tetko et al.; mined from patent text by program, amines drawn as free bases though some values may be those of a salt).

On to `NC(=O)[C@H](NCc1ccccc1)[C@@H]1CSC(=O)N1Cc1ccccc1`, for which the melting point (commonly the temperature of the solid-liquid transition) is 194 to 195 °C.
In turn, `O=C(/C=C/c1cccc(S(=O)(=O)N2CCN(c3cccc(C(F)(F)F)c3)CC2)c1)NO` showed a melting point of 173 °C.
As for `CCS(=O)(=O)c1cc(C(=O)NCC2CCCN2CC2=CCCCC2)c(OC)cc1N` (stereo not drawn), the figure is 192 °C.
For `COc1ccc(O)c(C2(OC)Sc3ccccc3N(C)C2=O)c1` (stereo not drawn), the melting point fell in the range of 135 to 136 °C.
Then `CCOC(=O)C(=NOCCCl)c1csc(N)n1`, with 126 to 128 °C; and `CC(NC(Nc1cc(F)cc(C(F)(F)F)c1)=C(C#N)S(C)(=O)=O)C(C)(C)C` (stereo not drawn), with 183 to 185 °C; and `COc1ccc(C(O)CSCc2ccncc2)cc1` (stereo not drawn), with 70 to 72.5 °C.
Molecule `COc1ccc2c3c1O[C@H]1C[C@@H](O)C=C[C@@]31CCN(CCN1CCOCC1)C2` registered a melting point of 101 to 104 °C.
Then `CC(C)(C)OC(=O)C[C@H](NC(=O)CCCC(=O)Nc1ccc(C#N)cc1)C(=O)N[C@@H](Cc1ccccc1)C(=O)OC(C)(C)C`, with 64 to 66 °C.
Then `Nc1c(Cl)cccc1CO`, with 56 to 68 °C.
Then `O=C1CC(c2cccc(-n3ccnn3)c2)=Nc2cc(O)c(-c3ccc(F)cc3)cc2N1`, with greater than 250 °C; and `CCOC(=O)c1ncn2c1CN=C(NCC(OC)OC)c1ccccc1-2`, with 121 to 122 °C; and `O=c1[nH]c2cc(Br)cc(Br)c2c(=O)n1Cc1ccccc1`, with greater than 280 °C.
Consider `CN(Cc1ccc(NC(=O)C2=Cc3cc(-c4ccc(N5CCOCC5)cc4)ccc3N(C=O)CC2)cc1)C1CCOCC1`, for which the melting point lay within 234 to 243 °C.
Then `O=C(c1ccc(-c2ncn[nH]2)cc1Cl)N1Cc2cccn2Cc2ccccc21`, with 174 to 177 °C; and `CC(C)(C)c1cc(NC(=O)NCc2ccc([N+](=O)[O-])cc2)cc(C(C)(C)C)c1O`, with 240 to 241 °C.
Then `COC(=O)c1ccc(C(=O)c2c(O)cccc2F)cc1`, with 101 °C; and `O/N=C1\CCCc2c1c1ccccc1n2-c1ccc(O)cc1`, with 227 to 229 °C; and `CN(CCC(O)c1ccc(Cl)cc1)Cc1ccccc1F` (stereo not drawn), with 52 to 54 °C.
As for `N=C(N)N1CCc2[nH]cnc2C1`, the figure is 310 °C.
Regarding `COc1ccc(NCCNC(=O)c2ccc(OCC=C(C)CCC=C(C)C)cc2)cn1`, the melting point was in the range of 97.9 to 99.3 °C.
Consider `CC(C)C[C@H](NC(=O)OCc1ccccc1)C(=O)N[C@@H](C(C)C)[C@@H](O)c1c(-c2ccccc2)c1=O`, for which the melting point was in the range of 84 to 94 °C.
As for `O=Cc1cc2cc3c(cc2nc1I)OCCO3`, the figure is 155 to 157 °C; as for `CC(C)OC(=O)c1cc(-n2c(=O)[nH]c3c(c2=O)CCC3)c(Cl)cc1Cl`, 186 to 189 °C.
Then `CCOC(=O)C=Cc1ccc2c(c1)CC(CNS(=O)(=O)c1ccc(Cl)cc1)C2` (stereo not drawn), with 113 to 115 °C; and `CCOC(=O)c1cc(CC)sc1Nc1ccc(N)cc1N`, with 152 to 155 °C.
`CC(C)CCCC(C)CCOc1ccc2c(c1)[nH]c1ccccc12` (stereo not drawn) returned a melting point of 188 °C.
Then `Fc1ccc(CNc2nc(-n3cnc4ccccc43)nc(-n3cnc4ccccc43)n2)cc1`, with 296 to 298 °C; and `CCOc1ccc(Nc2cccc3ccccc23)cc1`, with 73 to 75 °C; and `CCOC(=O)c1ccccc1NC(=O)NCC1(c2ccccc2)CCCCC1`, with 99 to 101 °C.
Regarding `CCCCCCc1ccc2c(c1)[nH]c1cc(COC(c3ccccc3)(c3ccccc3)c3ccccc3)ccc12`, the melting point was in the range of 155 to 156 °C.
Then `COc1cc2c(c(N3CCN(C)CC3)c1)OC(C(=O)Nc1ccc(N3CCN(C)CC3)cc1)CC2` (stereo not drawn), with 180 to 190 °C; and `COc1ccnc(CSc2nc3cc4c(cc3[nH]2)OCO4)c1OC`, with 155 to 157 °C; and `COC(=O)C1=C(Nc2ccccc2N)CSC1`, with 101 °C.
As for `Cn1c(=O)c2c(ncn2CC(O)CN2CCN(C(=O)c3ccco3)CC2)n(C)c1=O` (stereo not drawn), the figure is 100 °C; as for `CCOC(=O)C1=C(C)NC(O)(c2cccc(Cl)c2)C(C(=O)OCC)C1c1cccc([N+](=O)[O-])c1` (stereo not drawn), 212 to 214 °C; as for `NC(=O)c1cnn2c1NCC=C2c1cccc(C(F)(F)F)c1`, 157 to 160 °C.
As for `CC(C)(C)OC(=O)Cc1ccc(CNC(=O)C2Cc3ccccc3N2S(=O)(=O)c2ccc(-c3cccc(C(F)(F)F)c3)cc2)cn1` (stereo not drawn), the figure is 70 °C; as for `CCOP(C)(=O)CCNS(=O)(=O)c1ccc(C)cc1` (stereo not drawn), 124 to 126 °C.
`c1ccc(CSc2ccccc2Cn2cncn2)cc1` gave a melting point of 65 to 68 °C.
For `CCCCC1CCC(c2ccc(C(=O)CC(=O)C(F)(F)F)cc2)CC1` (stereo not drawn), the melting point was determined as 65 °C.
As for `Cc1ccc(-c2ccc3c(c2)C=C(CN2CCC(NC(=O)C(F)(F)F)CC2)CCO3)cc1`, the figure is 94 to 96 °C; as for `C=CC(C)c1cc(C)c2c(c1O)C(N(C)C(C)=O)C1CCCCC21` (stereo not drawn), 143 to 145 °C; as for `CC(=O)C1=C(Nc2ccc(C3=NNC(=O)CC3)cc2)CC(C)(C)CC1=O`, 212 to 214 °C.
Then `C=CCn1c(NC=O)nc(N2CCc3ccccc3CC2)c(C#N)c1=O`, with greater than 200 °C; and `CC(C)(C)NS(=O)(=O)c1cccs1`, with 80 to 82 °C; and `CC(=O)Oc1ccc(P(c2ccccc2)c2ccc(OC(C)=O)cc2)cc1`, with 118 to 120 °C.
In turn, `COc1cc(OC)nc(NC(=O)NS(=O)(=O)c2c(C)nsc2OCC(Cl)(Cl)Cl)n1` came in with a melting point of 176 to 180 °C.
On to `CNCc1c(C)c([N+](=O)[O-])cc2[nH]c(=O)c(=O)[nH]c12`, for which the melting point fell in the range of 260 to 261 °C.
As to `Cc1oc(-c2cc(C(C)(C)C)c(O)c(C(C)(C)C)c2)nc1CC(=O)O`, the melting point fell in the range of 205 to 206 °C.
Then `COC(=O)C1=C(C)NC(C)=C(C(=O)OCCN2CCCN(C(c3ccccc3)c3ccccc3)CC2)C1c1cccc([N+](=O)[O-])c1` (stereo not drawn), with 60 to 63 °C; and `Clc1ccc(-c2nnc(CSCCOc3ccccc3)o2)cn1`, with 113 to 115 °C.
Then `CCCCOc1cc(-c2cc3ccccc3[nH]2)ccc1O`, with 163 °C; and `CNC(=O)C1OC1C(=O)c1ccc(Cl)cc1` (stereo not drawn), with 160 to 161 °C.
As for `CNc1nc(C)c(-c2cn3cc(Cl)ccc3n2)s1`, the figure is 242 to 243 °C; as for `CSc1nnc(-c2ccc(-c3ccccc3)cc2)n1-c1ccccc1F`, 199 to 200 °C; as for `CC=C(c1ccccc1)c1c(C)nn(C)c1NC(=O)Nc1ccccc1`, 173 to 195 °C.
On to `O=C1NCCc2ccc(OCCCCN3CCN(c4cccc(Cl)c4Cl)CC3)nc2N1`, for which the melting point fell in the range of 197 to 199 °C.
Then `CN1c2ccccc2C(c2ccccc2Cl)=Nc2cccnc21`, with 132 to 133 °C; and `CNc1cc(-n2cc(C(=O)O)c(=O)c3cc(F)c(F)c(C)c32)c(F)cc1F`, with 238 °C; and `O=C1CC(c2cccc3c2OCO3)=Nc2ccc(N3CCCC3)cc21`, with 330 to 332 °C.
Then `BrCCCCn1c2ccccc2c2ccccc21`, with 102 to 104 °C.
As for `CCSC1CCC(=O)N1S(=O)(=O)c1ccccc1` (stereo not drawn), the figure is 100 to 113 °C; as for `COc1ccccc1-c1ccc2cnc(Nc3ccc(OCCN4CCOCC4)cc3)nn12`, 133 to 135 °C; as for `O=C(C(=O)c1cccc(F)c1)c1cccc(F)c1`, 104 to 105 °C.
With `O=C(O)CCc1cccc(-c2nc(=O)c3ccccc3s2)c1`, the melting point was found to be 180 °C.
In turn, `FC(F)(F)c1ccc(Cl)cc1CN1CCNc2ncc(-c3cn[nH]c3)cc21` registered a melting point of 271 °C.
In turn, `CC1CCCN(c2ccc(Cl)cc2C(C)C(C(N)=O)c2ccc(C(=O)O)cc2)C1` (stereo not drawn) gave a melting point of 208 to 210 °C.
`N#CCOc1ccc2cc(-c3csc(-c4ccccc4)n3)ccc2c1` came in with a melting point of 113 to 117 °C.
Take `O=c1[nH]cc(Cc2cccnc2)cc1[N+](=O)[O-]`: the melting point fell in the range of 216 to 217 °C.
Then `CCOc1nn(-c2cc(C(F)(F)F)ccn2)cc1CCCO`, with 73 to 74 °C; and `CC1(C)CC(C)(C)CC2(CCC(=O)N2)C1`, with 158 to 160 °C; and `C#CCN(C)c1c(-c2c(F)cc(F)cc2F)c(C#N)nc2ncnn12`, with 147 °C.
As for `CC1(C)Cc2ccc(C#N)cc2N(C(=O)NCc2ccccc2)C1`, the figure is 162 to 163 °C; as for `C#Cc1ccc(C(=O)Cl)cc1`, 32 to 34 °C.
Then `CNC(=S)NN=C(CCCNC(=O)c1ccccc1)c1ccccc1`, with 114 to 118 °C.
As for `COc1ccc(-c2nn(Cc3ccccc3)c(=O)cc2-c2ccncc2)cc1`, the melting point is 154 to 155 °C.
Then `Cc1nccn1-c1nc(-c2ccc(Cl)cc2)c(CCC#N)o1`, with 163 to 164 °C; and `CCCCCCc1ccc(-c2cnn(C(C)(C)Cc3ccc(C)cc3)c2O)cc1`, with 149 to 151 °C.
Then `Cc1cc(C)c2c(c1C)O[C@@H](C)[C@H]2c1ccc(C(C)C)cc1` (relative stereo), with 79 to 80 °C.
As for `CCC(=O)CC(=O)c1ccc(C(=O)CC(=O)CC)cc1`, the figure is 122 to 124 °C; as for `CC(=O)c1cc(-c2cccc(Cl)c2)ccc1N`, 89 to 90 °C; as for `O=C(O)C1(c2cn3nc(NCCCN4CCC(OC(c5ccccc5)c5ccccc5)CC4)ccc3n2)CC1`, 115 to 117 °C.
Consider `Cc1cc(N=CN(C)C)c(C)cc1Cc1cccc(C(F)(F)F)c1`, for which the melting point lay in the range of 75 to 77 °C.
As for `CC(C)n1nc(-c2sc(C(=O)NCCN3CCOCC3)nc2-c2ccccc2)ccc1=O`, the figure is 196 to 198 °C; as for `C=CC[C@@H]1C(=O)OC[C@@H]1O[Si](C)(C)C(C)(C)C`, 48 °C.
Then `COc1ccc(C2NCCc3c2[nH]c2ccccc32)cc1F` (stereo not drawn), with 68 °C; and `CON=C1c2c(Cl)cc(Cl)c(-n3c(=O)cc(C(F)(F)F)n(C)c3=O)c2OC1(C)C`, with 145 to 149 °C.
